Several values for one entry are separate records, joined by “and”; a condition that tells them apart may be missing. Equal values may be shown once. Read-outs that look alike come from different tables or passages of the source.
How the values were obtained:
in vitro [1] = details: pig, LLC-PK1 MOCK cell monolayer (Transwell), pH 7.4
Experimental: (§3) Cells were passaged at 80−90% confluence (every 2−3 days) using trypsin-EDTA solution. […] The culture medium was replaced every other day, including 200 µL culture medium in the apical and 850 µL cell culture medium in the basolateral side. LLC-PK1 MOCK cells were used at passages of 3−30. LLC-PK1-MDR1 cells were cultured and passaged in the same manner as LLC-PK1 cells except at the density of 1 × 10^4 cells per well. LLC-PK1-MDR1 cells were used at passages of 3−25. For LLC-PK1 MOCK cells and LLC-PK1-MDR1 cells, the experiments were performed on the 4th and 7th day after seeding.
(§4) Samples were collected from the donor well at the start of the incubation (50 µL) as C0, and from the donor and receiver wells at the end of the incubation (50 µL). All samples were stored at - 40 °C for LC-MS/MS analysis.
(§5) Bidirectional transport experiments. […] The transwell experiments were conducted following above-mentioned procedure. […] When the recovery rate of the tested drug is below 80%, the possibility of intracellular accumulation should be considered. The polycarbonate (PC) membrane where cells are grown should be carefully peeled off from the cell culture medium and placed in 100 µL of HBSS buffer solution. […] The process was carried out on ice to prevent heat-induced degradation, applying a power in the range of 300 W for a total duration of 20 minutes. Thereafter, a quantitative analysis of the intracellular drug was conducted, and the drug recovery rate was recalculated based on this analysis.
(§6) The apparent permeability coefficient (Papp, cm/s) was calculated for each transport direction, A-B and B-A, using the following equation: Papp=dQ/dt×1/A×C0 where dQ/dt is the permeation rate (µmol/s), A is the surface area of the insert (0.33 cm^2, Corning), and C0 is the initial donor concentration (µM).
(§7) The efflux ratio (ER) is calculated as the ratio of Papp (B-A)/Papp (A-B). Recovery=TRcumrf+Cdf×VD/Cdi×VD×100% Where TRcumrf is the cumulative transported mass in the receiver chamber at the end of the incubation (nmol), Cdf is the concentration of the drug in the donor chamber at the end of the incubation (μM), VD is the volume of the donor chamber (mL), and Cdi is the initial concentration of the drug in the donor chamber (μM).
(§8) The method of the bidirectional transport experiment was the same as before.

P-gp (human MDR1) [2] = test: in vitro; details: pig, LLC-PK1, pH 7.4
Experimental: (§9) The overexpression and functional activity of P-glycoprotein (P-gp) in the LLC-PK1-MDR1 cells were rigorously validated through multiple methods.
as §3
(§10) Monitoring permeability of positive control drugs. […] Samples were collected from the donor well at the start of the incubation (50 µL) as C0, and from the donor and receiver wells at the end of the incubation (50 µL). All samples were stored at - 40 °C for LC-MS/MS analysis.
as §5, §6, §7, §8

[3] = cited from earlier work
LLC-PK1 MOCK cells = test: Bidirectional transport across LLC-PK1 MOCK monolayer (Transwell); details: LLC-PK1 MOCK, 2 µM, 2 h, mean ± s, n = 3; BLQ = below 2 nM;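 also: compound quantified by LC-MS/MS in donor and receiver wells, efflux ratio as B-A over A-B Papp, recovery relative to initial donor amount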
Experimental: as §3, §4, §5, §6, §7, §8

P-gp (human MDR1) [4] = test: Bidirectional transport across LLC-PK1-MDR1 monolayer stably expressing human MDR1 (P-gp) (Transwell); details: pig; for efflux ratio at 2 h, 2 µM: LLC-PK1, pH 7.4, ER, LLC-PK1-MDR1, Papp (B-A)/Papp (A-B);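 as to all read-outs here: 2 h incubation at 37 °C, receiver HBSS with 10 mM Hepes plus 1% BSA, LC-MS/MS of donor and receiver, recovery as receiver plus donor amount over initial donor amount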
Experimental: as §9, §3, §10, §5, §6, §7, §8

in vitro [5] = details: rat, brain homogenate
Experimental: (§1) Stocks (10 mM) of test compounds were diluted to 5 μM with plasma or tissue homogenate and dialyzed at 37 °C for 6 hours in a shaking incubator. After incubation aliquots of both plasma or tissue homogenate and buffer from the device were taken and added to equal volumes of blank buffer and plasma or tissue homogenate respectively. Samples were then diluted in acetonitrile containing an internal standard prior to centrifugation and analysis of the supernatants by LC-MS/MS. The fu, plasma was calculated using Equation 1:(1) fu,plasma=Concbuffer chamber/Concsample chamber
Rat fraction unbound in brain (fu, brain) was determined as the ratio of concentration in buffer to that in brain.
(§2) Unbound fractions of test drugs in plasma (fu,plasma) and brain tissue (fu,brain). For compounds with existing rat plasma or brain protein-binding data from literature or internal studies, values were directly adopted.

in vivo = details: rat
Text: In vivo unbound brain distribution data (Kp,uu,Brain) for 16 drugs and total brain distribution data (Kp,Brain) for 16 drugs was acquired from literature. […] For each tested compound, fifteen rats were randomly divided into five groups of three rats each. […] The time of execution of the rats by CO2 inhalation after administration was optimized according to the in vivo elimination rate to achieve five concentrations of different time points. After the rats were euthanized, cardiac puncture was performed immediately to remove as much whole blood as possible (~7 ml) from the systemic circulation (Quantitatively aliquot 0.2 ml of whole blood for the determination of drug concentration in plasma). Afterwards, the brain tissue was collected immediately and rinsed repeatedly with ice-cold saline 3 times. Then, the surface saline was blotted dry with clean filter paper to remove as much residual drug in the blood vessels as possible. Plasma samples were prepared by centrifugation of the blood samples at 2,500 g for 10 minutes at 4 °C. All brain samples were homogenized by adding 4-fold volume water. All samples were stored at -40 °C before LC-MS/MS analysis. […] The brain tissue partition coefficient (Kp, brain) and brain-to-plasma unbound drug partition ratio (Kp,uu, brain) are calculated according to the following formulas, respectively: Kp,brain=AUC(0−∞,brain)/AUC(0−∞,plasma)Kp,uu,brain=Kp,brain×(fu,tissue/fu,plasma)
Free brain-to-plasma distribution coefficients (Kp,uu,brain) of 41 drugs. Brain distribution coefficients (Kp,uu,brain) were calculated for 41 drugs. […] Plasma and brain concentration-time profiles were generated, and AUC(0-t) values for both matrices were calculated using WinNolin 8.1. Kp,brain was derived as the ratio of brain-to-plasma AUC(0-t).
Kp,uu,brain values were computed by normalizing Kp,brain to unbound fractions (fu,plasma and fu,brain).

[6] = footnote b, species not stated; ref https://go.drugbank.com; cited from earlier work
[7] = Bidirectional transport across LLC-PK1 MOCK monolayer (Transwell); details: pig; for Papp B→A at 2 h, 2 µM: LLC-PK1, pH 7.4; for recovery at 2 h, 2 µM: LLC-PK1 MOCK cell monolayer (Transwell), pH 7.4, Recovery after correction of intracellular accumulation data, cell lysate included, mean±SD, n=3;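 as to all read-outs here: compound quantified by LC-MS/MS in donor and receiver wells, efflux ratio as B-A over A-B Papp, recovery relative to initial donor amount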
Experimental: as §3, §4, §5, §6, §7, §8

in vitro [8] = details: rat, plasma
Experimental: as §1, §2

[9] = LLC-PK1 MOCK/MDR1 monolayer model, results stated for both cell lines jointly; details: pig, LLC-PK1 MOCK and LLC-PK1-MDR1 cell monolayers (Transwell)
Experimental: Monitoring of TEER value and LY permeability. After the LLC-PK1 MOCK/MDR1 cells attach to the Transwell insert, TEER (Transepithelial Electrical Resistance) values were continuously recorded using a cell resistance meter (Beijing JINGONGHONGTAI Technology Co., Ltd). These TEER values represent the mean from six individual inserts (n = 6) measured per group. The TEER measurement and transport experiment were conducted at 37 °C, using a heating plate to maintain the required temperature. The transmembrane resistance was calculated using the formula TEER = (Rtotal-Rblank) × Aarea, where Rblank represents the TEER of the blank chamber.
The permeability of the Lucifer Yellow CH Dipotassium Salt (LY, 100 μM) across the monolayers was measured in apical-to-basolateral direction to monitor the integrity of the cell monolayer.
Bidirectional transport experiments. […] The transwell experiments were conducted following above-mentioned procedure.

LLC-PK1-MDR1 cells [10] = system: LLC-PK1-MDR1 cells
Experimental: as §9, §3, §10, §5, §6, §7, §8

[11] = parameters: method as in not given; details: stated without method; ref not given; cited from earlier work
LLC-PK1-MDR1 cells [12] = test: Bidirectional transport across LLC-PK1-MDR1 monolayer stably expressing human MDR1 (P-gp) (Transwell); details: LLC-PK1-MDR1, positive control drugs run with each batch (n = 15), 2 µM;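 also: 2 h incubation at 37 °C, receiver HBSS with 10 mM Hepes plus 1% BSA, LC-MS/MS of donor and receiver, recovery as receiver plus donor amount over initial donor amount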
Experimental: as §9, §3, §10, §5, §6, §7, §8

[13] = LLC-PK1, pH 7.4, Papp A-B, LLC-PK1-MDR1, 2 µM, 2 h, mean ± s, n = 3
[14] = pH 7.4, Recovery after cell lysate extraction, intracellular drug included
[15] = pH 7.4, Recovery, bidirectional transport, uncorrected
[16] = pH 7.4, with bafilomycin A1 1 µM (inhibitor of lysosomal function), Recovery, with 1 µM Bafilomycin A1, bidirectional transport
[17] = LLC-PK1, pH 7.4, Papp A-B, LLC-PK1 MOCK, 2 h, mean ± s, n = 3, BLQ = below 2 nM

Row | SMILES | recovery at 2 h, 2 µM (in vitro [1]) | recovery at 2 h, 2 µM (P-gp (human MDR1) [2]) | Papp A-B (LLC-PK1 MOCK cells) | Papp B→A at 2 h, 2 µM (P-gp (human MDR1) [4]; LLC-PK1, pH 7.4) | efflux ratio at 2 h, 2 µM (P-gp (human MDR1) [4]) | Papp A→B at 2 h, 2 µM (P-gp (human MDR1) [4]; [13]) | fraction unbound at 6 h, 5 µM (in vitro [5]) | Kp (in vivo; SD, iv, 1 mg/kg, Kp, Brain) | Kp (in vivo; SD, iv, 1 mg/kg, Kp,uu,Brian) | Papp B→A at 2 h, 2 µM [7] | fraction unbound at 6 h, 5 µM (in vitro [8]) | recovery at 2 µM [9, 14] | recovery at 2 µM [9, 15] | recovery at 2 µM [9, 16] | Papp A→B at 2 h, 2 µM [7, 17] | recovery at 2 h, 2 µM ([7]; B-A, LLC-PK1 MOCK) | pKa [11] | also measured
1 | CN(Cc1cnc2nc(N)nc(N)c2n1)c1ccc(C(=O)N[C@@H](CCC(=O)O)C(=O)O)cc1 [Methotrexate] | 85.8 ± 4.58% | 83.3 ± 5.67% | BLQ | 4.5 ± 0.5 nm/s | 0.81 | 5.5 ± 1 nm/s | – | – | – | – | – | – | – | – | – | – | – | Kp, Brain ([3]; ref Fridén [2009]): 0.004; Kp,uu,Brian ([3]; ref Fridén [2009]): 0.006; Papp B-A (LLC-PK1 MOCK cells): BLQ
2 | Fc1ccc([C@@H]2CCNC[C@H]2COc2ccc3c(c2)OCO3)cc1 [Paroxetine] | 54.1 ± 1.86% | – | – | 109 ± 3.5 nm/s | 2.11 | 51.5 ± 5.5 nm/s | < 0.01 | – | – | 148 ± 5.7 nm/s | 0.021 | > 80% | < 80% | 80 to 120% | 76.5 ± 2 nm/s | 92.7 ± 4.03% | > 7 | Kp (in vivo; Kp,uu,Brian): 1.57; Kp, Brain ([3]; ref O’Brien et al. [2012]): 3.307; efflux ratio at 2 h, 2 µM ([7]; LLC-PK1, pH 7.4, ER, LLC-PK1 MOCK, Papp (B-A)/Papp (A-B)): 1.93; recovery at 2 h, 2 µM ([7]; A-B, LLC-PK1 MOCK): 97.6 ± 1.99%
3 | COCCc1ccc(OCC(O)CNC(C)C)cc1 (stereo not shown) [Metoprolol] | 114 ± 8.95% | 116 ± 1.08% | – | – | – | – | – | – | – | 240 ± 13.9 nm/s | – | – | – | – | 301 ± 38.8 nm/s | – | – | Papp A→B at 2 h, 2 µM ([7]; LLC-PK1, pH 7.4, Papp (A-B), LLC-PK1 MOCK, positive control drugs run with each batch (n = 15)): > 200 nm/s; Papp A-B (LLC-PK1-MDR1 cells [12]): exceeded 20 × 10^−⁶ cm/s

Continued, in another order:

Row | recovery at 2 h, 2 µM (in vitro [1]) | recovery at 2 h, 2 µM (P-gp (human MDR1) [2]) | Papp A-B (LLC-PK1 MOCK cells) | Papp B→A at 2 h, 2 µM (P-gp (human MDR1) [4]; LLC-PK1, pH 7.4) | efflux ratio at 2 h, 2 µM (P-gp (human MDR1) [4]) | Papp A→B at 2 h, 2 µM (P-gp (human MDR1) [4]; [13]) | fraction unbound at 6 h, 5 µM (in vitro [5]) | Kp (in vivo; SD, iv, 1 mg/kg, Kp, Brain) | Kp (in vivo; SD, iv, 1 mg/kg, Kp,uu,Brian) | Papp B→A at 2 h, 2 µM [7] | fraction unbound at 6 h, 5 µM (in vitro [8]) | recovery at 2 µM [9, 14] | recovery at 2 µM [9, 15] | recovery at 2 µM [9, 16] | Papp A→B at 2 h, 2 µM [7, 17] | recovery at 2 h, 2 µM ([7]; B-A, LLC-PK1 MOCK) | SMILES | pKa [11] | also measured
4 | – | – | BLQ | 34.7 ± 3.9 nm/s | – | – | < 0.01 | 0.291 | 0.012 | 0.9 ± 0.1 nm/s | – | – | – | – | – | – | COc1cccc2c1C(=O)c1c(O)c3c(c(O)c1C2=O)C[C@@](O)(C(=O)CO)C[C@@H]3O[C@H]1C[C@H](N)[C@H](O)[C@H](C)O1 [Doxorubicin] | – | Kp uu (in vivo; SD, iv, 1 mg/kg): < 0.012; Protein binding in plasma [6]: 75^b %; Papp A→B at 2 h, 2 µM (P-gp (human MDR1) [4]; LLC-PK1, pH 7.4): 9.5 ± 1.6 nm/s
5 | – | – | – | 218 ± 10.8 nm/s | – | 22.3 ± 2.1 nm/s | < 0.01 | 0.965 | 0.563 | 62.1 ± 2 nm/s | 0.017 | > 80% | < 80% | 80 to 120% | 93.1 ± 7.4 nm/s | 89.2 ± 8.92% | CCN(CC)CCNC(=O)c1c(C)[nH]c(/C=C2\C(=O)Nc3ccc(F)cc32)c1C [Sunitinib] | > 7 | recovery (LLC-PK1-MDR1 cells [10]): 116% and 97%

From paper PMC12667295, “A surrogate barrier model for high-throughput blood-brain barrier permeability prediction: integrating LLC-PK1-MOCK/MDR1 Cells and lysosomal trapping correction” (Drug Delivery, 2025)
